# Key:
# [1] = target: T1, Clover-SHIP1 and mRuby2-STAT3 (Mus musculus, UniProt Q9ES52); experiment: Acceptor photobleaching FRET analysis; assay type: cell-based; settings: J17 SHIP1−/− cells expressing Clover-SHIP1/mRuby2-STAT3; 1 minute; 100 ng/ml IL10, IL6 or 20 μM I-2
# T1 construct: expressed in transfected cells; host or cells: J17 (SHIP1-/- mouse macrophage line), lentiviral transduction
# Method: Acceptor Photobleaching FRET analysis. J17 cells expressing Clover-SHIP1 and/or mRuby2-STAT3 were seeded at 50×10^4 cells per well in 8-well Ibidi p-Slides (Ibidi GmbH, Martinsried, Germany). After overnight incubation, cells were serum-starved with Mac media containing 1% serum for 3 hours before media replacement with Leibovitz's (L-15) media (Invitrogen, Burlington, ON) supplemented with 1% serum, 10 μM β-mercaptoethanol, 150 μM monothioglycolate and 1 mM L-glutamine for confocal microscopy imaging. Cells were imaged on a Leica SP8X on DMi8 confocal microscope system with a 63×/1.3 Gly HC PL APO CS2 objective using a white light laser line with 488 nm for donor excitement and 555 nm for acceptor excitement. Photobleaching FRET analysis was performed by measuring Clover-SHIP1 donor fluorescence intensity before and after bleaching the acceptor, mRuby2-STAT3, within a field of cells ‘region of interest’ (ROI), at 100% laser intensity for 60 frames. Acceptor photobleaching was performed first in resting cells then at 1 minute (±5 seconds) following ‘mock’ stimulation with L-15 media, or L-15 media containing 100 ng/ml IL10, IL6 or 20 μM compound I-2. Donor and acceptor fluorescence intensity of individual cells within the bleached ROI was quantified before and after bleaching. Percentage FRET efficiency was calculated as % FRETeff=100×(Dpost−Dpre)/Dpost where Dpre and Dpost represent Clover-SHIP1 donor fluorescence intensity before and after bleaching, respectively.
# SHIP1 and STAT3 = target: T2, SHIP1 and STAT3 (Mus musculus, UniProt Q9ES52, Y190F); experiment: In vitro pull down assay of His6-SHIP1 with STAT3; assay type: cell-based; settings: Y190F vs wild-type SHIP1 cells; 5 minutes stimulation
# T2 construct: expressed in transfected cells; host or cells: J17 (SHIP1-/- mouse BMDM-derived line), lentiviral transduction
# T2 sequence (Q9ES52 1-1191 Y190F): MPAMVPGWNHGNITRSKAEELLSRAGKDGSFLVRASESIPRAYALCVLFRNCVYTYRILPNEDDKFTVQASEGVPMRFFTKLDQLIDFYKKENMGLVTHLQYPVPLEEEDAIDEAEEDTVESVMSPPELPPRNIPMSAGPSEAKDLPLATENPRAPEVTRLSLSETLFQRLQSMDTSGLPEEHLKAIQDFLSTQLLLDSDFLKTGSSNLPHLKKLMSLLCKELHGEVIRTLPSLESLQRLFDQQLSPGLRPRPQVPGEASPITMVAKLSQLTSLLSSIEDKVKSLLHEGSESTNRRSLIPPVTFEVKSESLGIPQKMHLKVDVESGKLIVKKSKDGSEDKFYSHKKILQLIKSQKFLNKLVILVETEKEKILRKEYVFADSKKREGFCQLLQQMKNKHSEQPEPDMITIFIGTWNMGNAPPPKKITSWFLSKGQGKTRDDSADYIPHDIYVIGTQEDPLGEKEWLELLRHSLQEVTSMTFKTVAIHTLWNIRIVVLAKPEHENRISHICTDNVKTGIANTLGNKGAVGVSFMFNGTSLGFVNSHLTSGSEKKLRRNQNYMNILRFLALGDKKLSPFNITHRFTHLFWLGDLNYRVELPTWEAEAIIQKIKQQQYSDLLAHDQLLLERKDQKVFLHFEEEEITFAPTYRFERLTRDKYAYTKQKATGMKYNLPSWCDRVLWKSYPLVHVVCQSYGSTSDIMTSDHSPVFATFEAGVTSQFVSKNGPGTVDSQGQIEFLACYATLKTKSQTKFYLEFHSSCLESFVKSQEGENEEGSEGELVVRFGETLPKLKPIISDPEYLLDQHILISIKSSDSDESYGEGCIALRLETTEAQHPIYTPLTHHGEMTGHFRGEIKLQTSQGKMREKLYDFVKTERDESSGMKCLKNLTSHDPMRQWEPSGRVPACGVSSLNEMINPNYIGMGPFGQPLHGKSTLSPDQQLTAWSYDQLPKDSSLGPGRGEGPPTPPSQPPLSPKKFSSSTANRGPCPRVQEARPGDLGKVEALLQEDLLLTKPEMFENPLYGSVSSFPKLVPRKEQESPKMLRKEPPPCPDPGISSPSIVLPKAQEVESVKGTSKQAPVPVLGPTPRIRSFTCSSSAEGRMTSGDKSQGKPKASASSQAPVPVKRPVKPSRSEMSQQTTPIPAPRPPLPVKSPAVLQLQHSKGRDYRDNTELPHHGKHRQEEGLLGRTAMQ
# Method: In vitro pull down assay. J17 His6-SHIP1 and Y190F cells were seeded at 2×10^6 cells per well in a 6-well plate. After overnight incubation, fresh cell media was added for 30 minutes before stimulation with 100 ng/ml IL10, […] or 20 μM compound I-2 for 5 minutes. Cells were lysed with Protein Solubilization Buffer (PSB, 50 mM Hepes, pH 7.5, […], 10 mM Na Pyrophosphate, 2 mM NaVO4, 2 mM Na Molybdate, 2 mM EDTA) containing 1% octylglucoside, 0.01 M imidazole, and protease inhibitor cocktail (Roche Diagnostics, Laval, QC) for 30 minutes at 4° C. and centrifuged at 10000 rpm for 15 minutes. EDTA resistant Ni beads (Roche Diagnostics, Laval, QC) were added to supernatants and the mixture incubated at 4° C. for 1 hour before spinning down and washing of beads three times with 0.1% octylglucoside wash buffer in PSB. Bead samples and starting material cell lysates were separated on a 7.5% SDS-PAGE gel.
# Immunoblotting. Protein lysates were separated on SDS-PAGE gels and transferred onto polyvinylidene fluoride (PVDF) membrane (Millipore, Etobicoke, ON). Membranes were blocked and probed, where appropriate, with the following primary antibodies overnight: SHIP1 (P1C1) (Santa Cruz Biotechnology), pSHIP1 (Y190) (Kinexus), STAT3 (9D8) (ThermoFisher Scientific), pSTAT3 (Y705) (Thermo Fisher Scientific), STAT1 (BD Transduction Laboratories), pSTAT1 (Y701) (Upstate Biotechnology), GAPDH and actin (Sigma-Aldrich). Membranes were developed with either Alexa Fluor® 660 anti-mouse IgG or Alexa Fluor® 680 anti-rabbit IgG antibodies (Thermo Fisher Scientific) and imaged using a LI-COR Odyssey Imager.
# T1 sequence (Q9ES52 whole entry): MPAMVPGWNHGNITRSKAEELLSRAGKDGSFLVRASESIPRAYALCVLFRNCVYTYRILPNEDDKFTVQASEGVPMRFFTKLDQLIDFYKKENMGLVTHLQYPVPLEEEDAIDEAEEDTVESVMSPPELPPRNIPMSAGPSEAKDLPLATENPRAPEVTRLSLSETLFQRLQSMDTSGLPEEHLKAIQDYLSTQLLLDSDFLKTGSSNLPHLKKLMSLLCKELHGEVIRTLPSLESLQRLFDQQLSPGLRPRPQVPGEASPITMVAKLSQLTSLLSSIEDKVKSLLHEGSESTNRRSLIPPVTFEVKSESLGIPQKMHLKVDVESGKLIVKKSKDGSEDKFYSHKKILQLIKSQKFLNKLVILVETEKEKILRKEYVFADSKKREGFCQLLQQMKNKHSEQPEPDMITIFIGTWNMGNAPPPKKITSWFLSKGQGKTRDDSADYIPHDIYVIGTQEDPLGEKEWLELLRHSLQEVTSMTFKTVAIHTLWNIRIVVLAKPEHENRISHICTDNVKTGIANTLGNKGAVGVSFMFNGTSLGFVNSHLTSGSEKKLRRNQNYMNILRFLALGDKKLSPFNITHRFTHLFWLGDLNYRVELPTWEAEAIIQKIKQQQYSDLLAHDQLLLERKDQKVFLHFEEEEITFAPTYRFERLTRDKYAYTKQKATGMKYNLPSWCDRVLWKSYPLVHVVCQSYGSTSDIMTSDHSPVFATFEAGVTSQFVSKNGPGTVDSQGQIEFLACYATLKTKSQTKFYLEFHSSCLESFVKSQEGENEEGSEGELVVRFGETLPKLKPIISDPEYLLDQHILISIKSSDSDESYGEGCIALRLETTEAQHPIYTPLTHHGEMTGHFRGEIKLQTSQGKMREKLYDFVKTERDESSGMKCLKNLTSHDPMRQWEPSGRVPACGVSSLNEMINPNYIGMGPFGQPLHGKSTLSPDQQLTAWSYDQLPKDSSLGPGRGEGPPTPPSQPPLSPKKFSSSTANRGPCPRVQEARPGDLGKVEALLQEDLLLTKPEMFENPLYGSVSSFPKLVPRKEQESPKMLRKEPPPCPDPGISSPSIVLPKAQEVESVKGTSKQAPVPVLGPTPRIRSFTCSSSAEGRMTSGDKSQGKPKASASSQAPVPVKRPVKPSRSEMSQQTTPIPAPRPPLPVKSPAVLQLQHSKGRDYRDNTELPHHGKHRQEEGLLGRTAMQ
# T1 sequence (P42227 whole entry partner): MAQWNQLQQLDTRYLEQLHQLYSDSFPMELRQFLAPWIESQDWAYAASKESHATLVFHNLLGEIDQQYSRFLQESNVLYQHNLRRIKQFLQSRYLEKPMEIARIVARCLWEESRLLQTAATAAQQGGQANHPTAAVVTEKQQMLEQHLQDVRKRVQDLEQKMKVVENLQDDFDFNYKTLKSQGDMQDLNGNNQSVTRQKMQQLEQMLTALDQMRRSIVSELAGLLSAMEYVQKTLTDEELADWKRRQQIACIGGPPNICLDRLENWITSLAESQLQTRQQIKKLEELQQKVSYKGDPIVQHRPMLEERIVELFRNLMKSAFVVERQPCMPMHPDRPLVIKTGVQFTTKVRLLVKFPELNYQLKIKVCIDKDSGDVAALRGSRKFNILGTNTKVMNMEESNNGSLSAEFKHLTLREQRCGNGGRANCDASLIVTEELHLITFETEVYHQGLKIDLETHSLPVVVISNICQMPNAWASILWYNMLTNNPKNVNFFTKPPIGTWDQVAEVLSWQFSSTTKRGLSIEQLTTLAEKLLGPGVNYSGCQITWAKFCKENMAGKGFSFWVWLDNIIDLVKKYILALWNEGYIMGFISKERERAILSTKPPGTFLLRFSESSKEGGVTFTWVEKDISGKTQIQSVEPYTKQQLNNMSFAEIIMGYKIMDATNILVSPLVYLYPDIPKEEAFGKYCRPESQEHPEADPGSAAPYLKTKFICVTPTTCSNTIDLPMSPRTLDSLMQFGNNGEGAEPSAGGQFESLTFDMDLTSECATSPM
Compound,Clover-mRuby2 FRET signal [1],reduction of Y190F SHIP1 mutant ability to interact with STAT3 (SHIP1 and STAT3) [fold]
CC12CCC3C(C)(C)C(N)CCC3(C)C1Cc1cc(O)cc(O)c12 (stereo not shown) [Compound I-2],increases,2
IL10: anti-inflammatory cytokine interleukin-10,increases,2

# — patent US20230174571A1, “METHOD OF TREATING SHIP1-MEDIATED DISEASES USING PELOROL DERIVATIVES” (Zebrapeutics Inc., priority 2020, published 2023)
